# Laboratory results reported in patent publication US11273217B2, “Cancer treatment composition combining anti-CD26 antibody and other anticancer agent” (Y's AC Co., Ltd., priority 2015, dated 2022).
# Like-named read-outs stand apart in the source and are kept apart here.
# B1: Y-TR1 SPDP (conjugate)
# heavy: EVQLVESGAGVKQPGGTLRLTCTASGFSLTTYGVHWVRQAPGKGLEWVGVIWGDGRTDYDAAFMSRVTISKDTSKSTVYLQMNSLRAEDTAVYYCMRNRHDWFDYWGQGTTVTVSSASTKGPSVFPLAPSSKSTSGGTAALGCLVKDYFPEPVTVSWNSGALTSGVHTFPAVLQSSGKLSSVVTVPSSSLGTQTYICNVNHKPSNTKVDKKVEPKSCDKTHTCPPCPAPELLGGPSVFLFPPKPKDTLMISRTPEVTCVVVDVSHEDPEVKFNWYVDGVEVHNAKTKPREEQYNSTYRVVSVLTVLHQDWLNGKEYKCKVSNKALPAPIEKTISKAKGQPREPQVYTLPPSRDELTKNQVSLTCLVKGFYPSDIAVEWESNGQPENNYKTTPPVLDSDGSFFKKLTVDKSRWQQGNVFSCSVMHEALHNHYTQKSLSLSPGK
# light: DILLTQSPSSLSATPGERATITCRASQGIRNNLNWYQQKPGQAPRLLIYYSSNLQSGVPSRFSGSGSGTDFTLTISRLQPEDVAAYYCQQSIKLPFTFGSGTKVEIKRTVAAPSVFIFPPSDEQLKSGTASVVCLLNNFYPREAKVQWKVDNALQSGNSQESVTEQDSKDSTYSLSSTLTLSKADYEKHKVYACEVTHQGLSSPVTKSFNRGEC
# Legend:
# Assay type in all cases: cell-based
# H2452 cells [1] = assay: MTT cell growth assay, H2452; settings: 10^−9 to 10^−4 M; day 2
# Method: (§1) MESO1 or H2452 cells (2×10^3 cells/well) were inoculated to a 96-well plate. One hour later, cisplatin or pemetrexed was added thereto at 10^−9, 10^−8, 10^−7, 10^−6, 10^−5, or 10^−4 M (n=6). At day 2, MTT assay was conducted.
# H2452 cells (2×10^3 cells/well) were inoculated to a 96-well plate. One hour later, the combination of 0.03, 0.3, or 1 μM cisplatin and 0.1, 3, or 10 μg/ml YS110, or the combination of 0.01, 0.1, or 0.3 μM pemetrexed and 0.1, 3, or 10 μg/ml YS110 was added thereto (n=6). At day 2, MTT assay was conducted. Significant difference was tested by two-tailed t-test (vs Cont).
# (§2) MESO1 cells (2×10^3 cells/well) or H2452 cells (2×10^3 cells/well) were inoculated to a 96-well plate. One hour later, 0.3 μM cisplatin-0.1 μM pemetrexed combination, or YS110 (10 μg/ml) plus the 0.3 μM cisplatin-0.1 μM pemetrexed combination was added thereto (n=6). At day 2, MTT assay was conducted. Significant difference was tested by two-tailed t-test (vs Cont).
# (§3) Gemcitabine was studied for its effect on the growth of a mesothelioma cell line. A mesothelioma cell line MESO1, JMN, H2452, or H226 (2×10^3 cells/well) was inoculated to a 96-well plate. One hour later, gemcitabine (10^−9, 10^−8, 10^−7, 10^−6, 10^−5, or 10^−4 M) was added thereto (N=6). 2 days later, MTT assay was conducted. Significant difference was tested by two-tailed t-test (vs Cont).
# (§4) H2452 cells (2×10^3 cells/well) were inoculated to a 96-well plate. One hour later, gemcitabine (0, 10^−8, 3×10^−8, or 10^−7 M) and YS110 (0, 1, 3, or 10 μg/ml) were added thereto in combination. At day 2, MTT assay was conducted. Significant difference was tested by two-tailed t-test (vs Cont). Next, interaction in concomitant use of medications was studied (n=6). The interaction between YS110 and gemcitabine used concomitantly was analyzed by two-way ANOVA.
# (§5) MESO1, JMN, H2452 or H226 cells (2×10^3 cells/well were inoculated to a 96-well plate. One hour later, 3×10^−8 M or 10^−7 M gemcitabine was added thereto by concomitant use with the combination of cisplatin (0, 0.1, 0.3, or 1 μM) and pemetrexed (0, 0.03, 0.1, or 0.3 μM) (n=6). At day 2, MTT assay was conducted.
# (§6) The growth inhibitory effect of gemcitabine (10^−9 to 10^−4 M) was compared using MESO1, H2452, JMN, and H226 cell lines.
# JMN cells = assay: MTT cell growth assay, JMN; settings: MESO1 (CD9+) vs JMN (CD9−); 10^−9 to 10^−4 M
# Method: as §3
# as §4, with “JMN” for “H2452”, “3×10^−10, 10^−9,” for “10^−8, 3×10^−8,”, “3×10^−8” for “10^−7”
# as §5
# (§7) The growth inhibitory effects of cisplatin (10^−9 to 10^−4 M) and pemetrexed (10^−9 to 10^−4 M) were compared using the MESO1 and JMN cell lines.
# as §6
# MESO1 cells [2] = assay: Boyden chamber invasion assay, MESO1; settings: 24 hours; for action on cell invasion (in words): cisplatin at 10 and 30 μM, pemetrexed even at 30 μM
# Method: (§8) MESO1 cells or H2452 cells (2.5×10^4 cells/well) were inoculated to a Boyden chamber. One hour later, cisplatin (5, 10, or 30 μM) or pemetrexed (1, 10, or 30 μM) was added thereto (n=5), followed by Boyden chamber invasion assay. 24 hours after the cell inoculation, invasive cells were stained with Diff-Quik-staining kit. Significant difference was tested by two-tailed t-test (vs Cont).
# (§9) MESO1 cells or H2452 cells (2.5×10^4 cells/well) were inoculated to a Boyden chamber. One hour later, the combination of cisplatin (0, 3, or 10 μM) and pemetrexed (0, 10, or 30 μM) was added thereto (n=5), followed by Boyden chamber invasion assay. 24 hours after the cell inoculation, invasive cells were stained with Diff-Quik-staining kit. Significant difference was tested by two-tailed t-test (vs Cont).
# as §9, with “MESO1” for “MESO1 cells or H2452”, “YS110” for “pemetrexed”, “20 μg/ml)” for “30 μM)”, “Cont). Next, the interaction of YS110 with cisplatin-pemetrexed concomitant use was studied. The interaction was analyzed by two-way ANOVA.” for “Cont).”
# H2452 cells [3] = assay: Boyden chamber invasion assay, H2452; settings: 24 hours; for action on cell invasion (in words): cisplatin at 10 and 30 μM, pemetrexed even at 30 μM
# Method: as §8, §9
# as §9, with “H2452” for “MESO1 cells or H2452”, “YS110” for “pemetrexed”, “20 μg/ml)” for “30 μM)”, “Cont). Next, the interaction of YS110 with cisplatin-pemetrexed concomitant use was studied. The interaction was analyzed by two-way ANOVA.” for “Cont).”
# MESO1 cells [4] = assay: MTT cell growth assay, MESO1; settings: 10^−9 to 10^−4 M; day 2
# Method: as §1
# MESO1 cells (2×10^3 cells/well) were inoculated to a 96-well plate. One hour later, the combination of 0.3, 3, or 10 μM cisplatin and 0.1, 3, or 10 μg/ml YS110, or the combination of 0.03, 0.3, or 1 μM pemetrexed and 0.1, 3, or 10 μg/ml YS110 was added thereto. At day 2, MTT assay was conducted. Significant difference was tested by two-tailed t-test (vs Cont).
# as §2, §3
# as §4, with “MESO1” for “H2452”
# as §5, §7, §6
# [5] = tested on: JMN (CD26-positive malignant mesothelioma cell line); assay: WST-1 cytotoxicity assay, JMN; settings: 48 hours
# Text: (§10) A CD26-negative malignant mesothelioma cell line MSTO-211H (MSTO) (American Type Cell Culture Collection, Manassas, Va.) was transfected with CD26 gene, which was designated as MSTO clone 12 (Aoe K et al., Clin Cancer Res. (2012) 18: 1447-56). A CD26-negative T-cell leukemia cell line Jurkat (American Type Cell Culture Collection, Manassas, Va.) was transfected with CD26 gene, which was designated as Jurkat CD26(+) (Tanaka T et al., Proc Natl Acad Sci USA (1993) 90: 4586-90). A CD26-positive cell line JMN established from malignant mesothelioma was kindly provided by professor Chikao Morimoto, the Institute of Medical Science, the University of Tokyo. All the cell lines were cultured in RPMI medium (catalog No. 11875-093, Life Technologies Corp., Carlsbad, Calif.) containing 10% heat-inactivated fetal bovine serum (FBS, Life Technologies Corp., Carlsbad, Calif.), ABPC (100 μg/ml), and streptomycin (100 μg/ml) at 37° C. under 5% CO2 environment.
# (§11) WST-1 assay was conducted according to the manual provided by the manufacturer. The background absorbance of each sample at 630 nm was subtracted from the measurement value thereof at 450 nm.
# [6] = tested on: MSTO clone 12 (CD26-positive malignant mesothelioma cell line); assay: WST-1 cytotoxicity assay, MSTO clone 12
# Text: as §10, §11
# [7] = tested on: MSTO-wt (CD26-negative malignant mesothelioma cell line MSTO-211H); assay: WST-1 cytotoxicity assay, MSTO wt; settings: 48 hours
# Text: as §10
# (§12) WST-1 assay was conducted according to the manual provided by the manufacturer. The background absorbance of each sample at 630 nm was subtracted from the measurement value thereof at 450 nm. The experiment was conducted in triplicate, and typical results are shown.
# [8] = tested on: Jurkat CD26(+) (T-cell leukemia cell line); assay: WST-1 cytotoxicity assay, Jurkat CD26(+); settings: 48 hours
# Text: as §10, §11
# [9] = tested on: Jurkat CD26(−) (T-cell leukemia cell line); assay: WST-1 cytotoxicity assay, Jurkat CD26(−); settings: 48 hours
# Text: as §10, §12
# [10] = pemetrexed even at 30 μM with cisplatin 10 μM
molecule,measurement,setting,value
Nc1nc2[nH]cc(CCc3ccc(C(=O)N[C@@H](CCC(=O)O)C(=O)O)cc3)c2c(=O)[nH]1 [pemetrexed],"cell growth, single drug dose-response (in words)",H2452 cells [1],suppressed the growth
same,growth inhibitory effect compared between MESO1 and JMN,JMN cells,did not differ
same,action on cell invasion (in words),MESO1 cells [2],no inhibitory action on invasion
same,effect of pemetrexed on the cell invasion inhibitory effect of cisplatin,MESO1 cells [2]; [10],did not potentiate
same,action on cell invasion (in words),H2452 cells [3],no inhibitory action on invasion
same,effect of pemetrexed on the cell invasion inhibitory effect of cisplatin,H2452 cells [3]; [10],did not potentiate
same,"cell growth, single drug dose-response (in words)",MESO1 cells [4],suppressed the growth
"CC(C)[C@]12O[C@H]1[C@@H]1O[C@@]13C1(C)CCC4=C(COC4=O)[C@@H]1C[C@@H]1O[C@@]13[C@@H]2O (stereo partly drawn) [Triptolide, (3bS,4aS,5aS,6R,6aR,7aS,7bS,8aS,8bS)-6-hydroxy-6a-isopropyl-8b-methyl-3b,4,4a,6,6a,7a,7b,8b,9,10-decahydrotrisoxireno[6,7:8a,9:4b,5]phenanthro[1,2-c]furan-1(3H)-one]",cytotoxicity (in words),[5],dose-dependent toxic effect
same,IC50,[5]; CD26 (+),15 nM
same,IC50,"[6]; MSTO clone12, CD26 (+), 48 hours, read-out: IC50",10 nM
same,cytotoxicity (in words),"[6]; MSTO clone 12, 48 hours",dose-dependent toxic effect
same,IC50,"[7]; Homo sapiens, MSTO-211H, MSTO wt, CD26 (−)",10 nM
same,cytotoxicity (in words),[7]; MSTO-wt,dose-dependent toxic effect
same,IC50,"[8]; Homo sapiens, Jurkat CD26 (+)",6 nM
same,cytotoxicity (in words),[8]; Jurkat CD26(+),dose-dependent toxic effect
same,IC50,"[9]; Homo sapiens, Jurkat (−)",> 100 nM
same,cytotoxicity (in words),[9]; Jurkat,dose-dependent toxic effect
N.N.[Cl][Pt][Cl] [cisplatin],"cell growth, single drug dose-response (in words)",H2452 cells [1],suppressed the growth
same,growth inhibitory effect compared between MESO1 and JMN,JMN cells,did not differ
same,action on cell invasion (in words),MESO1 cells [2],suppressed cell invasion
same,action on cell invasion (in words),H2452 cells [3],suppressed cell invasion
same,"cell growth, single drug dose-response (in words)",MESO1 cells [4],suppressed the growth
B1,IC50,"[6]; MSTO clone12, CD26 (+), 48 hours",38 µg/mL
same,IC50,"[6]; Table 5: comparison among 3 types of linkers, MSTO clone 12",35 µg/mL
